Assay results reported in patent US8008305B2, “TAAR1 ligands” (Hoffmann-La Roche Inc., priority 2007, dated 2011).
pKd: −log10 of the molar value.

target: T1, TAAR1 (Mus musculus, UniProt Q923Y8); assay: Radioligand binding ([3H]-rac-2-(1,2,3,4-tetrahydro-1-naphthyl)-2-imidazoline) on membranes of HEK293 cells stably expressing TAAR1; details: TAAR1 binding assay; species not given; read-out: calculated Kd value of the radioligand
T1 construct: expressed in transfected cells; host or cells: HEK293 cells (ATCC # CRL-1573), stably transfected with pIRESneo2 expression plasmid; membranes prepared
Description: Construction of TAAR Expression Plasmids and Stably Transfected Cell Lines
For the construction of expression plasmids the coding sequences of human, rat and mouse TAAR 1 were amplified from genomic DNA essentially as described by Lindemann et al.. The Expand High Fidelity PCR System (Roche Diagnostics) was used with 1.5 mM Mg^2+ and purified PCR products were cloned into pCR2.1-TOPO cloning vector (Invitrogen) following the instructions of the manufacturer. PCR products were subcloned into the pIRESneo2 vector (BD Clontech, Palo Alto, Calif.), and expression vectors were sequence verified before introduction in cell lines.
HEK293 cells (ATCC # CRL-1573) were cultured essentially as described Lindemann et al. (2005). For the generation of stably transfected cell lines HEK293 cells were transfected with the pIRESneo2 expression plasmids containing the TAAR coding sequences (described above) with Lipofectamine 2000 (Invitrogen) according to the instructions of the manufacturer, and 24 hrs post transfection the culture medium was supplemented with 1 mg/ml G418 (Sigma, Buchs, Switzerland). After a culture period of about 10 d clones were isolated, expanded and tested for responsiveness to trace amines (all compounds purchased from Sigma) with the cAMP Biotrak Enzyme immunoassay (EIA) System (Amersham) following the non-acetylation EIA procedure provided by the manufacturer.
Membrane Preparation and Radioligand Binding
Cells at confluence were rinsed with ice-cold phosphate buffered saline without Ca^2+ and Mg^2+ containing 10 mM EDTA and pelleted by centrifugation at 1000 rpm for 5 min at 4° C. The pellet was then washed twice with ice-cold phosphate buffered saline and cell pellet was frozen immediately by immersion in liquid nitrogen and stored until use at −80° C. Cell pellet was then suspended in 20 ml HEPES-NaOH (20 mM), pH 7.4 containing 10 mM EDTA, and homogenized with a Polytron (PT 3000, Kinematica) at 10,000 rpm for 10 s. The homogenate was centrifuged at 48,000×g for 30 min at 4° C. and the pellet resuspended in 20 ml HEPES-NaOH (20 mM), pH 7.4 containing 0.1 mM EDTA (buffer A), and homogenized with a Polytron at 10,000 rpm for 10 s. The homogenate was then centrifuged at 48,000×g for 30 min at 4° C. and the pellet resuspended in 20 ml buffer A, and homogenized with a Polytron at 10,000 rpm for 10 s. Protein concentration was determined by the method of Pierce (Rockford, Ill.). The homogenate was then centrifuged at 48,000×g for 10 min at 4° C., resuspended in HEPES-NaOH (20 mM), pH 7.0 including MgCl2 (10 mM) and […] homogenized with a Polytron at 10,000 rpm for 10 s.
Binding assay was performed at 4° C. in a final volume of 1 ml, and with an incubation time of 30 min. The radioligand [^3H]-rac-2-(1,2,3,4-tetrahydro-1-naphthyl)-2-imidazoline was used at a concentration equal to the calculated Kd value of 60 nM to give a bound at around 0.1% of the total added radioligand concentration, and a specific binding which represented approximately 70-80% of the total binding. Non-specific binding was defined as the amount of [^3H]-rac-2-(1,2,3,4-tetrahydro-1-naphthyl)-2-imidazoline bound in the presence of the appropriate unlabelled ligand (10 μM). Competing ligands were tested in a wide range of concentrations (10 pM-30 μM). […] Each experiment was performed in duplicate. All incubations were terminated by rapid filtration through UniFilter-96 plates (Packard Instrument Company) and glass filter GF/C, pre-soaked for at least 2 h in polyethylenimine 0.3%, and using a Filtermate 96 Cell Harvester (Packard Instrument Company). The tubes and filters were then washed 3 times with 1 ml aliquots of cold buffer B. Filters were not dried and soaked in Ultima gold (45 μl/well, Packard Instrument Company) and bound radioactivity was counted by a TopCount Microplate Scintillation Counter (Packard Instrument Company).

T1 sequence (Q923Y8 whole entry): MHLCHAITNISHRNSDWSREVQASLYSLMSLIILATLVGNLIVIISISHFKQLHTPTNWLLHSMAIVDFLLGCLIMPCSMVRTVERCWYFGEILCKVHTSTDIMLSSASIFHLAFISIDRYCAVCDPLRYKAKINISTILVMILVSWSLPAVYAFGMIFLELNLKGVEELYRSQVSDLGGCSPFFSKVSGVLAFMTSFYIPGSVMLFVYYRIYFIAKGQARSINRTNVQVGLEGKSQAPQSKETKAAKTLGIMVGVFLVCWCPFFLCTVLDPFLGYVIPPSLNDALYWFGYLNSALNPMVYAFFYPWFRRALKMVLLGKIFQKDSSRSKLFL

SMILES	pKd
c1ccc2c(c1)CCCC2C1=NCCN1 (racemic) [[^3H]-rac-2-(1,2,3,4-tetrahydro-1-naphthyl)-2-imidazoline, reference compound]	7.22

same assay, conditions: mouse TAAR1; radioligand at 60 nM, 4° C., 30 min incubation

SMILES	Ki
CN1CCN(c2ccc(C(=O)NCCc3ccccc3)cn2)CC1 [A, 6-(4-methyl-piperazin-1-yl)-N-phenethyl-nicotinamide, reference compound]	0.044 µM
CN1CCN(c2ccc(C(=O)NCc3ccccc3)cn2)CC1 [Example 1, N-Benzyl-6-(4-methyl-piperazin-1-yl)-nicotinamide]	0.071 µM
CN1CCN(c2ccc(C(=O)NCc3ccc(Cl)cc3)cn2)CC1 [Example 2]	0.013 µM
CN1CCN(c2ccc(C(=O)NCCc3ccc(Cl)cc3)cn2)CC1 [Example 6, N-[2-(4-Chloro-phenyl)-ethyl]-6-(4-methyl-piperazin-1-yl)-nicotinamide]	0.005 µM
CN1CCN(c2ccc(C(=O)NCCc3cccc(Cl)c3)cn2)CC1 [Example 7, N-[2-(3-Chloro-phenyl)-ethyl]-6-(4-methyl-piperazin-1-yl)-nicotinamide]	0.027 µM
CN1CCN(c2ccc(C(=O)NCCc3cccc(C(F)(F)F)c3)cn2)CC1 [Example 8, 6-(4-Methyl-piperazin-1-yl)-N-[2-(3-trifluoromethyl-phenyl)-ethyl]-nicotinamide]	0.01 µM
COc1ccc(CCNC(=O)c2ccc(N3CCN(C)CC3)nc2)cc1 [Example 9, N-[2-(4-Methoxy-phenyl)-ethyl]-6-(4-methyl-piperazin-1-yl)-nicotinamide]	0.091 µM
COc1cccc(CCNC(=O)c2ccc(N3CCN(C)CC3)nc2)c1 [Example 10, N-[2-(3-Methoxy-phenyl)-ethyl]-6-(4-methyl-piperazin-1-yl)-nicotinamide]	0.049 µM
CN1CCN(c2ccc(C(=O)NCCc3ccc4c(c3)OCO4)cn2)CC1 [Example 11, N-(2-Benzo[1,3]dioxol-5-yl-ethyl)-6-(4-methyl-piperazin-1-yl)-nicotinamide]	0.043 µM
CN1CCN(c2ccc(C(=O)NCCc3ccc(-c4ccccc4)cc3)cn2)CC1 [Example 12, N-(2-Biphenyl-4-yl-ethyl)-6-(4-methyl-piperazin-1-yl)-nicotinamide]	0.028 µM
CN1CCN(c2ccc(C(=O)NCCc3ccc(Oc4ccccc4)cc3)cn2)CC1 [Example 13, 6-(4-Methyl-piperazin-1-yl)-N-[2-(4-phenoxy-phenyl)-ethyl]-nicotinamide]	0.004 µM
CN1CCN(c2ccc(C(=O)NCCc3cccc(Oc4ccccc4)c3)cn2)CC1 [Example 14, 6-(4-Methyl-piperazin-1-yl)-N-[2-(3-phenoxy-phenyl)-ethyl]-nicotinamide]	0.068 µM
CN1CCN(c2ccc(C(=O)NCCc3ccc(OCc4ccccc4)cc3)cn2)CC1 [Example 15, N-[2-(4-Benzyloxy-phenyl)-ethyl]-6-(4-methyl-piperazin-1-yl)-nicotinamide]	0.006 µM
CN1CCN(c2ccc(C(=O)NCCc3cn(C)c4ccccc34)cn2)CC1 [Example 18, N-[2-(1-Methyl-1H-indol-3-yl)-ethyl]-6-(4-methyl-piperazin-1-yl)-nicotinamide]	0.023 µM
CN1CCC(Oc2ccc(C(=O)NCCc3ccc(Oc4ccccc4)cc3)cn2)CC1 [Example 24, 6-(1-Methyl-piperidin-4-yloxy)-N-[2-(4-phenoxy-phenyl)-ethyl]-nicotinamide]	0.019 µM
O=C(NCCc1ccc(Cl)cc1)c1ccc(N2CCNCC2)nc1 [Example 26, N-[2-(4-Chloro-phenyl)-ethyl]-6-piperazin-1-yl-nicotinamide]	0.081 µM
O=C(NCCc1ccc(Oc2ccccc2)cc1)c1ccc(N2CCNCC2)nc1 [Example 28, N-[2-(4-Phenoxy-phenyl)-ethyl]-6-piperazin-1-yl-nicotinamide]	0.016 µM
O=C(NCCc1cccc(Oc2ccccc2)c1)c1ccc(N2CCNCC2)nc1 [Example 29, N-[2-(3-Phenoxy-phenyl)-ethyl]-6-piperazin-1-yl-nicotinamide]	0.071 µM
O=C(NCCc1ccc(OCc2ccccc2)cc1)c1ccc(N2CCNCC2)nc1 [Example 30, N-[2-(4-Benzyloxy-phenyl)-ethyl]-6-piperazin-1-yl-nicotinamide]	0.028 µM
CN1CCN(c2ncc(C(=O)NCCc3ccc(Cl)cc3)cc2Br)CC1 [Example 31, 5-Bromo-N-[2-(4-chloro-phenyl)-ethyl]-6-(4-methyl-piperazin-1-yl)-nicotinamide]	0.006 µM
CN1CCN(c2ncc(C(=O)NCCc3ccc(Oc4ccccc4)cc3)cc2Br)CC1 [Example 32, 5-Bromo-6-(4-methyl-piperazin-1-yl)-N-[2-(4-phenoxy-phenyl)-ethyl]-nicotinamide]	0.005 µM
O=C(NCCc1ccc(Cl)cc1)c1cnc(N2CCNCC2)c(Br)c1 [Example 33, 5-Bromo-N-[2-(4-chloro-phenyl)-ethyl]-6-piperazin-1-yl-nicotinamide]	0.019 µM
O=C(NCCc1ccc(Oc2ccccc2)cc1)c1cnc(N2CCNCC2)c(Br)c1 [Example 34, 5-Bromo-N-[2-(4-phenoxy-phenyl)-ethyl]-6-piperazin-1-yl-nicotinamide]	0.009 µM
CN1CCN(c2ccc(C(=O)NCCC3CCCCC3)cn2)CC1 [Example 54, N-(2-Cyclohexyl-ethyl)-6-(4-methyl-piperazin-1-yl)-nicotinamide]	0.012 µM
CN1CCN(c2ccc(C(=O)NCC3CCCCC3)cn2)CC1 [Example 55, N-Cyclohexylmethyl-6-(4-methyl-piperazin-1-yl)-nicotinamide]	0.062 µM
